Data as given in patent US20110190269A1, “GAMMA SECRETASE MODULATORS” (priority 2010, published 2011).

Each molecule was assayed on γ-secretase (assay: Cellular γ-secretase assay (inhibition of Aβ42 secretion)). Settings: human neuroglioma H4 cells overexpressing human APP, 22 hrs incubation.
Assay type: cell-based
Method: Human neuroglioma H4 cells overexpressing human APP were plated at 30,000 cells/well/[…] in 96-well plates in IMDM media containing 10% FCS, […] Hygromycin B and incubated for 2 h at 37° C., 5% CO2 prior to adding test compounds.
Compounds for testing were dissolved in 100% Me2SO yielding in a 10 mM stock solution. Typically […] of these solutions were further diluted in 1000 μl of IMDM media (w/o FCS). Subsequent 1:1 dilutions gave a ten point dose response curve. 100 μl of each dilution was added to the cells in 96-well plates. Appropriate controls using vehicle only and reference compound were applied to this assay. The final concentration of Me2S0 was 0.4%.
After incubation for 22 hrs at 37° C., 5% CO2, 50 μl supernatant was transferred into round-bottom 96-well polypropylene plates for detection of Aβ42. 50 μl assay buffer (50 mM Tris/Cl, pH 7.4, 60 mM NaCl, 0.5% BSA, 1% TWEEN 20) was added to the wells followed by the addition of 100 μl of detection antibody (ruthenylated BAP15 0.0625 μg/ml in assay buffer). 50 μl of a premix of capture antibody (biotinylated 6E10 antibody, 1 μg/ml) and Steptavidin-coated magnetic beads (Dynal M-280, 0.125 mg/ml) were preincubated for 1 hr at room temperature before adding the assay plates. Assay plates were incubated on a shaker for 3 hrs at room temperature and finally read in the Bioveris M8 Analyser according to the manufacturer's instructions (Bioveris).
IC50 values for inhibition of Aβ42 secretion were calculated by nonlinear regression fit analysis using XLfit 4.0 software (IDBS).

SMILES | EC50 [nM]
COc1cc(Nc2nc3cc(C)cc(C)n3n2)ccc1-n1cnc(C)c1 [Example 14, (5,7-Dimethyl-[1,2,4]triazolo[1,5-a]pyridin-2-yl)-[3-methoxy-4-(4-methyl-imidazol-1-yl)-phenyl]-amine] | 679
COc1cc(Nc2nc3nc(C)cc(C(C)(C)C)n3n2)ccc1-n1cnc(C)c1 [Example 15, (7-tert-Butyl-5-methyl-[1,2,4]triazolo[1,5-a]pyrimidin-2-yl)-[3-methoxy-4-(4-methyl-imidazol-1-yl)-phenyl]-amine acetate] | 572
CCCc1cccc2nc(Nc3ccc(-n4cnc(C)c4)c(OC)c3)nn12 [Example 16, [3-Methoxy-4-(4-methyl-imidazol-1-yl)-phenyl]-(5-propyl-[1,2,4]triazolo[1,5-a]pyridin-2-yl)-amine] | 197
COc1cc(Nc2nc3cccc(C(F)(F)F)n3n2)ccc1-n1cnc(C)c1 [Example 17, [3-Methoxy-4-(4-methyl-imidazol-1-yl)-phenyl]-(5-trifluoromethyl-[1,2,4]triazolo[1,5-a]pyridin-2-yl)-amine] | 285
COc1cc(Nc2nc3nc(C)cc(-c4ccccc4)n3n2)ccc1-n1cnc(C)c1 [Example 18, [3-Methoxy-4-(4-methyl-imidazol-1-yl)-phenyl]-(5-methyl-7-phenyl-[1,2,4]triazolo[1,5-a]pyrimidin-2-yl)-amine acetate] | 129
COC(=O)c1cc(-c2cccc(OC(F)F)c2)n2nc(Nc3ccc(-n4cnc(C)c4)c(OC)c3)nc2n1 [Example 19, 7-(3-Difluoromethoxy-phenyl)-2-[3-methoxy-4-(4-methyl-imidazol-1-yl)-phenylamino]-[1,2,4]triazolo[1,5-a]pyrimidine-5-carboxylic acid methyl ester acetate] | 953
COc1cc(Nc2nc3nc4c(c(-c5ccccc5)n3n2)CCCC4)ccc1-n1cnc(C)c1 [Example 21, [3-Methoxy-4-(4-methyl-imidazol-1-yl)-phenyl]-(9-phenyl-5,6,7,8-tetrahydro-[1,2,4]triazolo[5,1-b]quinazolin-2-yl)-amine acetate] | 201
COc1cc(Nc2nc3nc(C(C)C)cc(C(C)C)n3n2)ccc1-n1cnc(C)c1 [Example 25, (5,7-Diisopropyl-[1,2,4]triazolo[1,5-a]pyrimidin-2-yl)-[3-methoxy-4-(4-methyl-imidazol-1-yl)-phenyl]-amine acetate] | 601
COc1cc(Nc2nc3nc(C(F)(F)F)cc(C(F)(F)F)n3n2)ccc1-n1cnc(C)c1 [Example 26, (5,7-Bis-trifluoromethyl-[1,2,4]triazolo[1,5-a]pyrimidin-2-yl)-[3-methoxy-4-(4-methyl-imidazol-1-yl)-phenyl]-amine] | 312

Second part, the molecule after the results:

EC50 [nM] | SMILES
107 | COc1cc(Nc2nc3nc(C(F)(F)F)cc(-c4ccc(Cl)cc4)n3n2)ccc1-n1cnc(C)c1 [Example 20, [7-(4-Chloro-phenyl)-5-trifluoromethyl-[1,2,4]triazolo[1,5-a]pyrimidin-2-yl]-[3-methoxy-4-(4-methyl-imidazol-1-yl)-phenyl]-amine acetate]
74 | COc1cc(Nc2nc3c(OC)ccc(-c4ccc(F)cc4)n3n2)ccc1-n1cnc(C)c1 [Example 22, [5-(4-Fluoro-phenyl)-8-methoxy-[1,2,4]triazolo[1,5-a]pyridin-2-yl]-[3-methoxy-4-(4-methyl-imidazol-1-yl)-phenyl]-amine]
191 | COc1cc(Nc2nc3nccc(-c4ccc(OC(F)(F)F)cc4)n3n2)ccc1-n1cnc(C)c1 [Example 23, [3-Methoxy-4-(4-methyl-imidazol-1-yl)-phenyl]-[7-(4-trifluoromethoxy-phenyl)-[1,2,4]triazolo[1,5-a]pyrimidin-2-yl]-amine acetate]
592 | COc1cc(Nc2nc3nc(C(F)(F)F)cc(-c4ccco4)n3n2)ccc1-n1cnc(C)c1 [Example 24, (7-Furan-2-yl-5-trifluoromethyl-[1,2,4]triazolo[1,5-a]pyrimidin-2-yl)-[3-methoxy-4-(4-methyl-imidazol-1-yl)-phenyl]-amine]
